Columns and labels:
[1] = test system: CCD 841 CoN cells; assay: Trypan Blue exclusion viability assay, normal colon epithelial cells; assay type: cell-based; settings: 10 μM, 48 hours
[2] = test system: CRC cell lines (SW620, HT-29, HCT 116+/−p53, RKO, and LS411N); assay: Alamar Blue cell viability assay, human CRC panel; assay type: cell-based; settings: Homo sapiens; 72 hours; read-out: IC50, cytotoxicity in all CRC cell lines
Procedure: (§1) FIGS. 4A-4F show AP-4-139B is efficacious as a single agent against human CRC in vitro and in vivo. FIG. 4A: Three CRC cell lines (HT-29, LS411N, and SW620) were treated with 10 μM of PET-16 or AP-4-139B for 48 hours. Cell were then subjected to viability assays using Trypan Blue exclusion. *** p<0.001. […] FIGS. 4B-4C: A panel of six CRC cell lines (SW620, HT-29, HCT 116+/−p53, RKO, and LS411N) were plated at a density of 1,000 cells per well in 96-well plates. The next day, cells were treated with the indicated inhibitors for 72 hours. Cells were then subjected to the Alamar Blue cell viability assays. Shown are representative IC50 values of an average of six technical replicates and two biological replicates. FIG. 4D: 2.5×10^6 HT-29 cells were injected subcutaneously into the right flank of NSG mice. Once tumors reached an approximate volume of 100 mm^3, mice were separated randomly into two groups: control vs. AP-4-139B. Mice were treated with 12.5 mg/kg AP-4-139B three times a week. All mice were euthanized 22 days after the start of treatment. Tumor volumes were recorded using digital calipers and using the formula v=length×width^2×0.52. *** p<0.001. n=10 mice per group. FIG. 4E: Immunohistochemistry (IHC) analysis of HT-29 xenograft tumors treated with AP-4-139B. Shown are representative images (4-6 random fields of view per condition) of Ki67 (proliferation) and Cleaved Lamin A (cell death). n=4 mice per group. Scale bar=100 μm. Respective IgG antibody was used as the negative control.

[3] = test system: HT-29 tumor xenografts; assay: HT-29 tumor xenograft in NSG mice; assay type: in vivo; settings: 12.5 mg/kg three times per week
Procedure: as §1
FIGS. 8A-8E show HSP70 inhibition is effective on mouse CRC cell lines. FIG. 8A: Association of HSPA1A gene expression and survival rate of patients with colorectal adenocarcinoma (COAD). Patient data was gathered from USCS Xena platform (GDC-TCGA COAD; n=435). Log-rank test was used to determine significance. p=0.0004. FIG. 8B: Association of HSPA1A gene expression and stage of COAD (n=440). Wilcoxon rank sum test was used to determine significance. * p<0.05, *** p<0.001. FIG. 8C: Body weights of mice injected with HT-29 tumor xenografts. Weights were measured at the start of the treatment to determine mouse toxicity. n.s. not significant, n=10 mice per group. FIG. 8D: H&E staining of livers and colons of mice injected with HT-29 tumor xenografts. Tissues were collected at the end of the study. FIG. 8E. Pharmacokinetic values of AP-4-139B in the liver, plasma, and brain from three CDI mice treated with 10 mg/kg of compound.
Shown are representative images of COXIV and a-SMA. n=5 mice per group. Scale bar=100 μm.
All studies were carried out in accordance with the recommendations in the Guide for the Care and Use of Laboratory Animals of the National Institutes of Health (NIH). All protocols were approved by The Wistar Institute Institutional Animal Care and Use Committee (IACUC). Mice were housed in plastic cages with ad libitum diet and maintained with a 12-hour dark/12-hour light cycle at 22° C. For human xenograft studies, 2.5×10^6 HT-29 cells were injected subcutaneously into the right flanks of 6-8 week old male NSG (NOD.Cg-Prkdcscid II2rgtm1 Wjl/SzJ) mice. For mouse xenograft studies, 1×10^6 MC38 cells were subcutaneously into the right flanks of 6-8 week old male C57Bl/6J mice. Tumor volumes were measured using digital calipers and tumor volume was calculated using the formula: volume=(length×width^2)×0.52. All mice were monitored daily for signs of pain or distress.

[4] = test system: MC38 cells; assay: Anti-tumor vaccination study in C57BL/6 mice; assay type: in vivo, mouse
Procedure: FIG. 25A: C57Bl/6 mice were injected with either PBS or AP-4-139B pre-treated MC38 cells into the left flank. 10 days later, the same mice were injected with untreated MC38 cells in the right flank. […] Log rank test p<0.0001. FIG. 25B: Tumor growth measured in mice in FIG. 25A over 25 days. n=15 mice per group. Wilcox rank-sum test p<0.0001.
For in vivo metastasis assays, 8-10 week old male C57Bl/6 mice were injected with 4×10^5 MC38 cells. Mice were then treated with either vehicle or 10 mg/kg AP-4-139B every 48 hours for 3 weeks. At the end of the study, mice were euthanized, lungs were harvested and fixed in formalin for analysis of lung tumor nodules by H&E. For anti-tumor vaccination studies, MC38 cells were treated with 10 μM AP-4-139B for 48 h, resulting in approximately 20% cell death (as assessed by Trypan Blue staining). 2×10^6 pre-treated MC38 cells or PBS was inoculated subcutaneously into the left flank of 8-10 week old male C57BL/6 mice. Ten days later, mice were challenged on the right flank with 5×10^5 live MC38 cells, and tumor growth and incidence were monitored 3 times per week. The absence of tumors was scored as an indication for efficient antitumor vaccination.

[5] = test system: 1205LU melanoma xenografts; assay: 1205Lu melanoma xenograft in NSG mice; assay type: in vivo, mouse; settings: i.p. twice per week
Procedure: 1205LU melanoma xenografts in NSG mice were established. When tumors reached 100 mm^3 in volume, mice were treated twice per week with the i.p. doses of AP-4-139B indicated.
AP-4-139B was tested as a single agent in a 1205Lu melanoma xenograph in mice. 1205LU melanoma xenografts in NSG mice were established. When tumors reached 100 mm^3 in volume, mice were treated twice per week with the i.p. doses of AP-4-139B indicated.

## c1ccc(-c2cn3nc(CCCCCC[P+](c4ccccc4)(c4ccccc4)c4ccccc4)sc3n2)cc1 [AP-4-139B, Triphenyl(6-(6-phenylimidazo[2,1-b][1,3,4]thiadiazol-2-yl)hexyl)phosphonium bromide]
[1]
  toxicity to normal colon epithelial cells: far less sensitive
[2]
  IC50: 1500 to 3000 nM
[3]
  Ki-67 staining in tumors: reduced staining for Ki-67
  cleaved lamin A staining in tumors (apoptosis): increased staining for cleaved lamin A
  loss of mitochondria in treated tumors (COX IV staining): No evidence was found that AP-4-139B caused obvious loss of mitochondria
  progression of HT-29 tumor xenografts: significantly reduced the progression of HT-29 tumor xenografts
  toxicity (weight loss, liver or colon architecture): No evidence for toxicity
[4]; over 25 days
  tumor size in vaccine-treated mice: markedly reduced compared with control
[4]; vaccinated with pre-treated MC38 cells, control 15 of 15
  mice that developed tumors on the right flank: 3 of 15
[5]
  tumor growth, 1205Lu xenograft: inhibit tumor growth
  tumor weight, 1205Lu xenograft: reduce tumor weight
